Source: patent US11028051B2, “Tetrahydroquinoline-based bromodomain inhibitors” (St. Jude Children's Research Hospital, priority 2016, dated 2021)
Like-named read-outs stand apart in the source and are kept apart here.

Tests used:
BRD2-BD1 [1] = target: T1, BRD2-BD1 (Homo sapiens (Human), UniProt P25440); test: competitive TR-FRET assay, BET-BD with acetylated peptide ligand; assay type: binding
Description: (§1) Inhibitor potency was determined using a competitive TR-FRET assay as detailed herein, measuring interaction of the respective BET-BD with an acetylated peptide ligand (Table 2).
Target sequence in this assay (P25440 74-180): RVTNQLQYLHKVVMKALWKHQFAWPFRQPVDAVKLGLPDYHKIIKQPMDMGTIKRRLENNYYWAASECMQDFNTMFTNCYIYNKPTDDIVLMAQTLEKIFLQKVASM

BRD2-BD2 = BRD2-BD2 (Homo sapiens (Human), UniProt P25440); test: as above; assay type: binding; settings: for 2.1/2.2: ratio of BRD2-BD1 EC50 to BRD2-BD2 EC50 (selectivity); for [2(1)/2(2)]: Table 4, ratio of EC50
Description: as §1

BRD3-BD1 = BRD3-BD1 (Homo sapiens (Human), UniProt Q15059); test: as above; assay type: binding
Description: as §1

BRD4-BD1 = BRD4-BD1 (Homo sapiens (Human), UniProt O60885); test: as above; assay type: binding
Description: as §1

BRD4-BD2 = BRD4-BD2 (Homo sapiens (Human), UniProt O60885); test: as above; assay type: binding
Description: as §1

BRDT = BRDT (Homo sapiens, UniProt Q58F21); test: as above; assay type: binding; settings: read-out: BRDT EC50
Description: as §1

HDMB03 cells = test: cell viability, CellTiter-Glo; assay type: cell-based, human; settings: Homo sapiens, HD-MB03, Table 5; read-out: EC50 (μM) HDMB03
Description: Human G3 medulloblastoma or mouse SHH medulloblastoma cells were grown as neurospheres in supplemented neurobasal medium, as previously described (Kawauchi et al., 2012.)
After 7 days of treatment, an equal volume of CellTiter-Glo reagent (G7572, Promega) was added and the luminescence signal was measured using an automated Envision plate reader (Perkin-Elmer). Luminescence data were normalized by log10 transformation prior to calculating the percent inhibition using the following equation:
100*(negative control mean −compound value)/(negative control mean −positive control mean).
High-throughput assay data were analyzed using Robust Interpretation of Screening Experiments (RISE) application written in Pipeline Pilot (Accelrys, v. 8.5) and the R program (R Development Core Team).
Dose-response curves were calculated by regressing the median percent inhibition obtained over triplicate experiments to log 10-transformed concentrations. Non-linear regression was then performed using the R drc package with the four parameter log-logistic function (LL2.4) (Ritz and Streibig, 2009). Curves were fit under three different constraints: (1) all parameters free, (2) high response fixed to 100, (3) low response fixed to 0; and the best fit from these three nested models was selected using the anova.drc function.

[2] = tested on: c-Myc expression in HDMB03 cells; test: c-Myc expression inhibition, high content microscopy (HCM); assay type: cell-based, human; settings: Homo sapiens
Description: 3000 human G3 medulloblastoma or 2000 mouse SHH medulloblastoma cells per well were plated into 384-well plates (6007710, Perkin Elmer) in 30 μL of supplemented neurobasal medium using a Wellmate automated dispenser (Thermo Matrix). After 24 hours, 125 nl of compound was transferred via pin tool, resulting in a final drug concentration from 2 nM to 40 μM. 72 hours after adding the drug, the plates were fixed with 4% formaldehyde for 20 min. After fixation the cells were then washed 3 times with 75 μl of PBS. The cells were then permeabilized with 0.1% Triton-X 100 for 15 minutes at 25° C. and blocked using 1% BSA in PBS for 1 hour at 25° C. The primary antibody against c-Myc Ab (#9402, Cell Signaling) at a 1:400 dilution was diluted in 1% BSA in PBS. This mixture was added to each well before incubation overnight at 4° C. Each well was then washed 3 times with PBS using a Biotek ELX405 Select plate washer, and incubated for 1 hour at 25° C. with a solution containing 1/400 goat α-rabbit-Alexa-488 (4412S, Cell Signaling) and 1 μM Hoechst 33342 to detect nuclear material (H3570, Molecular Probes). Two images were captured of each well at 10× using a GE Healthcare InCell 6000 at 405 nM to detect nuclear staining and 488 nM to detect c-Myc. All data were analyzed using the multi-target analysis algorithm of the GE InCell Analyzer Workstation software. The number of nuclear objects in each well, as well as all nuclear measurements, was determined through nuclear masks over the Hoechst staining. C-Myc staining was then measured using top-hat segmentation in the entire cell.

BRD2-BD1 [3] = target: T1, BRD2-BD1; test: isothermal titration calorimetry analysis of binding; settings: ITC, BRD2-BD1
Description: b. Isothermal Titration Calorimetry Analysis of Binding to Brd2-BD1 and Brd2-BD2
Binding of compounds to BRD2 was monitored using an ITC200 (Microcal, Piscataway, N.J.). Either Brd2.1 (74-194) or Brd2.2 (348-455) was dialyzed overnight into a solution containing 50 mM HEPES, pH 7.0 and 150 mM NaCl at 15° C. Enzyme concentrations were determined after dialysis by absorbance at 280 nm using a molar extinction coefficient (ε280) of 25,565 M^−1 cm^−1 (2.1) or 16,055 M^−1 cm^−1 (2.2). Enzyme was diluted in dialysis buffer and 39.6 μL was loaded into the syringe. Compounds were dissolved in the same dialysis buffer and loaded in the cell to a volume of 204 μL. Injections were carried out by serial injections of enzyme; first, 1 injection of 1 μL, followed by 19 incremental injections of 2 μL, at 120 second intervals. Data from the first injection was excluded, due to pre-equilibration mixing between the contents of cell and syringe at the syringe tip. Peak areas were integrated, normalized, and then fitted by non-linear regression using the independent sites model in Origin™ (version 2.3.6, Microcal, Piscataway, N.J.).
Target sequence in this assay (P25440 74-194): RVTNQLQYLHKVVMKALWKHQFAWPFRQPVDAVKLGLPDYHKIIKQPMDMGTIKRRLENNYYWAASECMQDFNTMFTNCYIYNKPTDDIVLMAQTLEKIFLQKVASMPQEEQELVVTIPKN

BRD2(1) = BRD2(1) (Homo sapiens (Human), UniProt P25440); test: BROMOscan KD determination; assay type: binding; settings: Table 10
Description: (§2) DiscoverX® can screen compounds against all ˜42 bromodomains (a service called BROMOscan) and perform follow-up KD determination. This service is considered the industrial standard for bromodomain inhibitor comparisons. […] Dots are symbolic of inhibition of the compound at this concentration; the larger the size of the dot, the greater the activity of the compound. […] Though these compounds are selective for the BET family, the selectivity within the BET family is poor. The results of a competitive binding experiment between compounds 19 (left), 41 (center), and 56 (right) (at a single concentration, 1 μM) and a control for each of the bromodomains are shown in FIG. 5.

BRD2(2) = BRD2(2) (Homo sapiens (Human), UniProt P25440); test: BROMOscan KD determination; assay type: binding
Description: as §2

BRDT(1) = BRDT(1) (Homo sapiens (Human), UniProt Q58F21); test: BROMOscan KD determination; assay type: binding; settings: Table 10
Description: as §2

BRDT(2) = BRDT(2) (Homo sapiens (Human), UniProt Q58F21); test: BROMOscan KD determination; assay type: binding
Description: as §2

BRD3(1) = BRD3(1) (Homo sapiens (Human), UniProt Q15059); test: BROMOscan KD determination; assay type: binding; settings: Table 10
Description: (§3) DiscoverX® can screen compounds against all ˜42 bromodomains (a service called BROMOscan) and perform follow-up KD determination. This service is considered the industrial standard for bromodomain inhibitor comparisons.

BRD3(2) = BRD3(2) (Homo sapiens (Human), UniProt Q15059); test: BROMOscan KD determination; assay type: binding
Description: as §3

BRD4(1) = BRD4(1) (Homo sapiens (Human), UniProt O60885); test: BROMOscan KD determination; assay type: binding; settings: Table 10
Description: as §3

BRD4(2) = BRD4(2) (Homo sapiens (Human), UniProt O60885); test: BROMOscan KD determination; assay type: binding
Description: as §3

[4] = BRD2-BD1, Table 11 additional modifications, read-out: 2.1 EC50
[5] = BRD2-BD2, Table 11 additional modifications, read-out: 2.2 EC50
[6] = BRD3-BD1, Table 11 additional modifications, read-out: 3.1 EC50
[7] = BRD4-BD1, Table 11 additional modifications, read-out: 4.1 EC50
[8] = BRD4-BD2, Table 11 additional modifications, read-out: 4.2 EC50
[9] = BRDT, Table 11 additional modifications
[10] = Table 4, read-out: EC50 (μM) BRD2(1)
[11] = Table 4, read-out: EC50 (μM) BRD2(2)
[12] = HD-MB03, Table 5, read-out: EC50 (μM) Myc-inhibition
[13] = Table 2, inhibitor potency by TR-FRET

Sequence of BRD2-BD2 (P25440 344-453): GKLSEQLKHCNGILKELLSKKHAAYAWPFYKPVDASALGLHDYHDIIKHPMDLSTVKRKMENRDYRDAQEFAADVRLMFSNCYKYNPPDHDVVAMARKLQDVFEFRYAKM
Sequence of BRD3-BD1 (Q15059 34-140): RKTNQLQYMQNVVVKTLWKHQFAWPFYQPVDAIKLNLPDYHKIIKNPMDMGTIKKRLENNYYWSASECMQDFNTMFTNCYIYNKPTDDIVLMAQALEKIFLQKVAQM
Sequence of BRD2(2) (P25440 344-453): as the sequence (P25440 344-453) above
Sequence of BRD3(2) (Q15059 306-415): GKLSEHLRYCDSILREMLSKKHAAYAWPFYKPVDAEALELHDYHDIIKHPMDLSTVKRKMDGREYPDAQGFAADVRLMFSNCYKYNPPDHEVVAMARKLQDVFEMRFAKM
Sequence of BRD2(1) (P25440 74-180): as the sequence (P25440 74-180) above
Sequence of BRD3(1) (Q15059 34-140): as the sequence (Q15059 34-140) above

Row | Structure (SMILES) | EC50 (BRD2-BD1 [1]; [4]) | EC50 (BRD2-BD2; [5]) | 2.1/2.2 (BRD2-BD2) | EC50 (BRD3-BD1; [6]) | EC50 (BRD4-BD1; [7]) | EC50 (BRD4-BD2; [8]) | EC50 (BRDT; [9]) | further results
1 | CC(=O)Nc1cccc(-c2ccc3c(c2)[C@H](Nc2cccc(OC(F)(F)F)c2)C[C@H](C)N3C(C)=O)c1 [compound 22] | 26 µM | 0.79 µM | 33 | 10000 nM | 27 µM | 1.9 µM | 10000 nM | 
2 | CC(=O)Nc1cccc(-c2ccc3c(c2)[C@H](NC2CCCC2)C[C@H](C)N3C(C)=O)c1 [compound 38] | 5.5 µM | 2.4 µM | 2.3 | 3700 nM | 6.8 µM | 2.6 µM | 11000 nM | 
3 | CC(=O)Nc1cccc(-c2ccc3c(c2)[C@H](Nc2ccc(F)cc2)C[C@H](C)N3C(C)=O)c1 [compound 39] |  |  |  |  |  |  |  | EC50 (BRD2-BD1 [1]; [10]): 5.6 µM; [2(1)/2(2)] (BRD2-BD2): 51; EC50 (BRD2-BD2; [11]): 0.11 µM; EC50 (BRD3-BD1; Table 4, read-out: BRD3(1)): 2700 nM; EC50 (BRD4-BD1; Table 4, read-out: EC50 (μM) BRD4(1)): 5.7 µM; 4(1)/4(2) (BRD4-BD2; Table 4, ratio of EC50): 63; EC50 (BRD4-BD2; Table 4, read-out: EC50 (μM) BRD4(2)): 0.09 µM; EC50 (BRDT; Table 4): 10000 nM; EC50 (HDMB03 cells): 1.68 µM; EC50 [2, 12]: 0.04 µM
4 | COc1cc(F)ccc1N[C@@H]1C[C@H](C)N(C(C)=O)c2ccc(-c3cccc(NC(C)=O)c3)cc21 [compound 42] |  |  |  |  |  |  |  | EC50 (BRD2-BD1 [1]; [10]): 13 µM; [2(1)/2(2)] (BRD2-BD2): >100; EC50 (BRD2-BD2; [11]): 0.14 µM; EC50 (BRD3-BD1; Table 4, read-out: BRD3(1)): > 14000 nM; EC50 (BRDT; Table 4): > 14000 nM; EC50 (HDMB03 cells): 0.76 µM; EC50 [2, 12]: > 10 µM
5 | CC(=O)N1c2ccc(-c3ccco3)cc2[C@H](NC(=O)OC(C)C)C[C@@H]1C [compound 50] |  |  |  |  |  |  |  | IC50 (BRD4-BD1; [13]): 4600 nM; IC50 (BRD4-BD2; [13]): 2600 nM; ΔG (BRD2-BD1 [3]): -7.47 kcal/mol; −TΔS (BRD2-BD1 [3]): -0.20 kcal/mol; EC50 ([2]; HD-MB03, HDMB03 cells, read-out: c-Myc expression EC50): 0.33 µM
6 | CCCOc1cccc(-c2ccc3c(c2)[C@H](Nc2ccc(C(=O)OC)cc2)C[C@H](C)N3C(C)=O)c1 [compound 56] | 8.2 µM | 0.5 µM | 16 | 8100 nM | > 63 µM |  | 12000 nM | Kd (BRD2(1)): 160 nM; [2(1)/2(2)] (BRD2(2); BROMOscan KD ratio): 19.5; Kd (BRD2(2); BROMOscan, Table 10): 8.2 nM; Kd (BRDT(1)): 95 nM; T(1)/T(2) (BRDT(2); BROMOscan KD ratio): 4.1; Kd (BRDT(2); BROMOscan, Table 10): 23 nM; Kd (BRD3(1)): 99 nM; 3(1)/3(2) (BRD3(2); BROMOscan KD ratio): 23.0; Kd (BRD3(2); BROMOscan, Table 10): 4.3 nM; Kd (BRD4(1)): 140 nM; 4(1)/4(2) (BRD4(2); BROMOscan KD ratio): 31.8; Kd (BRD4(2); BROMOscan, Table 10): 4.4 nM
7 | CC(=O)N1c2ccc(-c3coc4ccccc34)cc2[C@H](NC(=O)OC(C)C)C[C@@H]1C [compound 90] | 11 µM | 3.5 µM | 0.84 | 3400 nM | 8.7 µM | 56 µM | 14000 nM | 
8 | CC(=O)Nc1cccc(-c2ccc3c(c2)[C@H](Nc2ccc(N(C)C)cc2)C[C@H](C)N3C(C)=O)c1 [compound 118] | 3.6 µM | 0.11 µM | 10 | 2100 nM | 5.1 µM | 0.21 µM | 1600 nM | 
9 | CC(=O)Nc1cccc(-c2ccc3c(c2)[C@H](Nc2ccc(OC(F)(F)F)cc2)C[C@H](C)N3C(C)=O)c1 [compound 132] | 20 µM | 0.37 µM | 16 | 10000 nM | 17 µM | 0.54 µM | 10000 nM | 
10 | CC(=O)N1c2ccc(-c3cccc(NC(=O)OC(C)(C)C)c3)cc2[C@H](Nc2ccc(Cl)cc2)C[C@@H]1C [compound 134] | 21 µM | 0.59 µM | 36 | 10000 nM | 21 µM | 0.9 µM | 10000 nM | 

Continued, in another order:

Row | EC50 (BRD2-BD1 [1]; [4]) | EC50 (BRD2-BD2; [5]) | 2.1/2.2 (BRD2-BD2) | EC50 (BRD3-BD1; [6]) | EC50 (BRD4-BD1; [7]) | EC50 (BRD4-BD2; [8]) | EC50 (BRDT; [9]) | Structure (SMILES) | further results
11 | 1.9 µM | 0.11 µM | 4.8 | 1500 nM | 2.3 µM | 0.08 µM | 2600 nM | COc1ccc(N[C@@H]2C[C@H](C)N(C(C)=O)c3ccc(-c4cccc(NC(C)=O)c4)cc32)cc1 [compound 18] | 
12 | 0.93 µM | 0.03 µM | 31 | 590 nM | 1.5 µM | 0.04 µM | 1800 nM | COc1cccc(N[C@@H]2C[C@H](C)N(C(C)=O)c3ccc(-c4cccc(NC(C)=O)c4)cc32)c1 [compound 21] | 
13 | 2.3 µM | 0.1 µM | 23 | 710 nM | 1.5 µM | 0.32 µM | 2100 nM | CNCc1ccc(N[C@@H]2C[C@H](C)N(C(C)=O)c3ccc(-c4cccc(NC(C)=O)c4)cc32)cc1 [compound 23] | 
14 | 3.2 µM | 3 µM | 1.1 | 1400 nM | 2.4 µM | 5.4 µM | 7000 nM | CC(=O)Nc1cccc(-c2ccc3c(c2)[C@H](NC2CCOCC2)C[C@H](C)N3C(C)=O)c1 [compound 36] | 
15 | 2.4 µM | 0.62 µM | 3.9 | 1200 nM | 1.5 µM | 0.54 µM | 2800 nM | CC(=O)Nc1cccc(-c2ccc3c(c2)[C@H](NC2CCCCCC2)C[C@H](C)N3C(C)=O)c1 [compound 37] | 
16 | 1.3 µM | 1.1 µM | 0.032 | 1100 nM | 0.86 µM | 37 µM | 4900 nM | CC(=O)N1c2ccc(-c3c[nH]c4ccccc34)cc2[C@H](NC(=O)OC(C)C)C[C@@H]1C [compound 91] | 
17 | 1.7 µM | 1.4 µM | 5.1 | 410 nM | 1.3 µM | 1.3 µM | 3000 nM | CC(=O)N1c2ccc(-c3cc4ccccc4[nH]3)cc2[C@H](NC(=O)OC(C)C)C[C@@H]1C [compound 92] | 
18 | 2.3 µM | 0.11 µM | 17 | 1200 nM | 2.9 µM | 0.06 µM | 4100 nM | CC(=O)Nc1cccc(-c2ccc3c(c2)[C@H](Nc2ccc([N+](=O)[O-])cc2)C[C@H](C)N3C(C)=O)c1 [compound 127] | 
